Test results: patent US8822691B2, “Pesticidal carboxamides” (Bayer CropScience AG, priority 2009, dated 2014)
Read-outs that look alike come from different tables or passages of the source.

How the values were obtained:
Assay type in all cases: in vivo
Tetranychus urticae = assay: Test against two-spotted spider mite (Tetranychus urticae), spray; details: for pest or weed control at 500 ppm: Tetranychus urticae, 168 h, read-out: acaricidal activity
Method: (§1) Unless not mentioned otherwise, the test solutions were prepared as follows:
(§2) Containing as solvent: Dimethylformamide, 3 parts by weight; and as emulsifier: Polyoxyethylene alkyl phenyl ether, 1 part by weight
(§3) To prepare the test solution, 1 part by weight of an active compound is mixed with the above-mentioned amount of solvent containing the above-mentioned amount of emulsifier, and the mixture is diluted with water to the desired concentration.
50 to 100 adult mites of Tetranychus urticae were inoculated to leaves of kidney bean at two-leaf stage planted in a pot of 6 cm in diameter. After one day, test solution at the appropriate concentration was sprayed thereon in a sufficient amount using a spray gun. After the spraying, the plant pot was placed inside a greenhouse, and after 7 days, the acaricidal activity was calculated. An acaricidal activity of 100% means that all mites were killed, whereas an acaricidal activity of 0% means that no mite was killed.

Aulacophora femoralis = assay: Test against cucurbit leaf beetle (Aulacophora femoralis), leaf dip; details: for pest or weed control at 500 ppm: Aulacophora, foliar, 168 h, read-out: insecticidal activity
Method: as §1, §2, §3
Leaves of cucumber were immersed in the test solution at the appropriate concentration, and the leaves were dried in air. The leaves were then put in a plastic cup containing sterilized black soil and five Aulacophora femoralis at second instar larvae were released in the cup. The cups were placed in a temperature-controlled chamber at 25° C. After 7 days, the number of dead larvae was counted, and thus the insecticidal activity was calculated. An insecticidal activity of 100% means that all larvae were killed, whereas an insecticidal activity of 0% means that no larva was killed.

Spodoptera litura = assay: Test against tobacco cutworm (Spodoptera litura) larvae, leaf dip; details: active compound concentration of 100 ppm, third instar larvae on sweet potato leaves, after 7 days; for pest or weed control at 100 ppm: foliar, 168 h, read-out: insecticidal activity
Method: as §1, §2, §3
Leaves of sweet potato were immersed in the test solution at the appropriate concentration, and the leaves were dried in air. The leaves were then placed in a petri dish having a diameter of 9 cm, and ten Spodoptera litura at third instar larvae were released therein. The petri dishes were placed in a temperature-controlled chamber at 25° C. After 2 days and 4 days more sweet potato leaves were added. After 7 days, the number of dead larvae was counted to calculate the insecticidal activity. An insecticidal activity of 100% means that all larvae were killed, whereas an insecticidal activity of 0% means that no larva was killed. In the current test, the results of two petri dishes for each treatment were averaged.

[1] = active compound concentration of 500 ppm, adult mites on kidney bean, after 7 days
[2] = active compound concentration of 500 ppm, second instar larvae on cucumber leaves, after 7 days

Row | Structure (SMILES) | acaricidal activity (Tetranychus urticae; [1]) [%] | insecticidal activity (Aulacophora femoralis; [2]) [%] | insecticidal activity (Spodoptera litura) [%] | also measured
1 | Cc1cc(C(F)(C(F)(F)F)C(F)(F)F)cc(OC(F)F)c1NC(=O)c1ccc2nc(C#N)ccc2c1 [2-261] | 100 | 100 | 100 | 
2 | N#Cc1ccc2cc(C(=O)Nc3c(Cl)cc(C(F)(C(F)(F)F)C(F)(F)C(F)(F)F)cc3OC(F)F)ccc2n1 (centres unmarked) [2-274] | 100 | 100 | 100 | 
3 | N#Cc1ccc2cc(C(=O)Nc3c(Br)cc(C(F)(C(F)(F)F)C(F)(F)F)cc3Br)ccc2n1 [2-64] | 100 | 100 | 100 | 
4 | O=C(Nc1c(I)cc(C(F)(C(F)(F)F)C(F)(F)C(F)(F)F)cc1SC(F)(F)F)c1ccc2c(ccc[n+]2[O-])c1 (centres unmarked) [2-187] | 100 |  |  | 
5 | CCc1cc(C(F)(C(F)(F)F)C(F)(F)C(F)(F)F)cc(C)c1NC(=O)c1ccc2nc(C#N)sc2c1 (centres unmarked) [Compound No. 4-34, 2-cyano-N-[2-ethyl-6-methyl-4-(1,1,1,2,3,3,4,4,4-nonafluorobutan-2-yl)phenyl]-1,3-benzothiazole-6-carboxamide] |  |  |  | pest or weed control at 500 ppm (Tetranychus urticae; [1]): 100%; pest or weed control at 100 ppm (Spodoptera litura): 100%
6 | CCc1cc(C(F)(C(F)(F)F)C(F)(F)C(F)(F)F)cc(C)c1NC(=O)c1ccc2ncsc2c1 (centres unmarked) [4-33] | 100 | 100 | 100 | 
7 | CCc1cc(C(F)(C(F)(F)F)C(F)(F)F)cc(C)c1NC(=O)c1ccc2cc(Br)ccc2c1 [Compound No. 1-3, 6-bromo-N-[2-ethyl-4-(1,1,1,2,3,3,3-heptafluoropropan-2-yl-2-yl)-6-methylphenyl]-2-naphthamide] |  |  |  | pest or weed control at 500 ppm (Tetranychus urticae; in Phaseolus vulgaris): 100%
8 | N#Cc1ccc2cc(C(=O)Nc3c(Cl)cc(C(F)(C(F)(F)F)C(F)(F)F)cc3OC(F)F)ccc2n1 [Compound No. 2-231, N-[2-chloro-6-(difluoromethoxy)-4-(1,1,1,2,3,3,3-heptafluoropropan-2-yl)phenyl]-2-cyanoquinoline-6-carboxamide] |  |  |  | pest or weed control at 500 ppm (Tetranychus urticae; [1]): 100%; pest or weed control at 500 ppm (Aulacophora femoralis; [2]): 100%; pest or weed control at 100 ppm (Spodoptera litura): 100%
9 | O=C(Nc1c(Br)cc(C(F)(C(F)(F)F)C(F)(F)F)cc1OC(F)F)c1ccc2ncccc2c1 [Compound No. 2-152, N-[2-bromo-(1,1,1,2,3,3,3-heptafluoropropan-2-yl)-6-(difluoromethoxy)phenyl]quinoline-6-carboxamide] |  |  |  | pest or weed control at 500 ppm (Aulacophora femoralis; in Cucumis sativus): 100%; pest or weed control at 100 ppm (Spodoptera litura): 100%
10 | N#Cc1ccc2cc(C(=O)Nc3c(Br)cc(C(F)(C(F)(F)F)C(F)(F)F)cc3SC(F)(F)F)ccc2n1 [2-66] | 100 | 100 | 100 | 
11 | O=C(Nc1c(I)cc(C(F)(C(F)(F)F)C(F)(F)C(F)(F)F)cc1OC(F)F)c1ccc2c(ccc[n+]2[O-])c1 (centres unmarked) [Compound No. 2-175, N-[2-(difluoromethoxy)-6-iodo-4-(1,1,1,2,3,3,4,4,4-nonafluorobutan-2-yl)phenyl]quinoline-6-carboxamide N-oxide] |  |  |  | pest or weed control at 500 ppm (Aulacophora femoralis; [2]): 100%; pest or weed control at 100 ppm (Spodoptera litura): 100%
12 | CCc1cc(C(F)(C(F)(F)F)C(F)(F)Br)cc(C)c1NC(=O)c1ccc2nc(C#N)ccc2c1 (centres unmarked) [2-194] | 100 | 100 | 100 | 
13 | CCOC(c1cc(C)c(NC(=O)c2ccc3nc(C#N)ccc3c2)c(CC)c1)(C(F)(F)F)C(F)(F)F [2-74] |  | 100 | 100 | 
14 | CCCc1cc(C(F)(C(F)(F)F)C(F)(F)C(F)(F)F)cc(I)c1NC(=O)c1ccc2nc(C#N)ccc2c1 (centres unmarked) [2-104] |  | 100 | 100 | 
15 | CCc1cc(C(F)(C(F)(F)F)C(F)(F)F)cc(C)c1NC(=O)c1ccc2nc(C#N)ccc2c1 [2-31] | 100 | 100 | 100 | 
16 | Cc1cc(C(F)(C(F)(F)F)C(F)(F)F)cc(C)c1NC(=O)c1ccc2nc(Cl)ccc2c1 [Compound No. 2-17, 2-chloro-N-[4-(1,1,1,2,3,3,3-heptafluoropropan-2-yl)-2,6-dimethylphenyl]quinoline-6-carboxamide] |  |  |  | pest or weed control at 500 ppm (Aulacophora femoralis; [2]): 100%; pest or weed control at 100 ppm (Spodoptera litura): 100%
17 | CCc1cc(C2(F)C(F)(F)C(F)(F)C(F)(F)C(F)(F)C2(F)F)cc(C)c1NC(=O)c1ccc2nc(C#N)ccc2c1 [2-130] | 100 | 100 | 100 | 
18 | N#Cc1ccc2cc(C(=O)Nc3c(I)cc(C(F)(C(F)(F)F)C(F)(F)C(F)(F)F)cc3I)ccc2n1 (centres unmarked) [2-113] |  | 100 | 100 | 
19 | N#Cc1ccc2cc(C(=O)Nc3c(Br)cc(C(F)(C(F)(F)F)C(F)(F)Br)cc3Br)ccc2n1 (centres unmarked) [2-197] | 100 | 100 | 100 | 
20 | Cc1cc(C(F)(C(F)(F)F)C(F)(F)F)cc(C(C)C)c1NC(=O)c1ccc2nc(C#N)ccc2c1 [2-37] |  | 100 | 100 | 

Row | Structure (SMILES) | acaricidal activity (Tetranychus urticae; [1]) [%] | insecticidal activity (Aulacophora femoralis; [2]) [%] | insecticidal activity (Spodoptera litura) [%] | also measured
21 | O=C(Nc1c(Br)cc(C(F)(C(F)(F)F)C(F)(F)C(F)(F)F)cc1SC(F)(F)F)c1ccc2c(ccc[n+]2[O-])c1 (centres unmarked) [2-184] | 100 |  |  | 
22 | N#Cc1ccc2cc(C(=O)Nc3c(I)cc(C(F)(C(F)(F)F)C(F)(F)Br)cc3I)ccc2n1 (centres unmarked) [2-200] |  | 100 | 100 | 
23 | N#Cc1ccc2cc(C(=O)Nc3c(Br)cc(C(F)(F)C(F)(F)F)cc3OC(F)F)ccc2n1 [2-221] | 100 | 100 | 100 | 
24 | CCOC(c1cc(C)c(NC(=O)c2ccc3ncccc3c2)c(CC)c1)(C(F)(F)F)C(F)(F)F [2-72] | 100 |  |  | 
25 | O=C(Nc1c(I)cc(C(F)(C(F)(F)F)C(F)(F)F)cc1I)c1ccc2c(ccc[n+]2[O-])c1 [2-68] |  | 100 | 100 | 
26 | CCc1cc(C(n2cc(Cl)cn2)(C(F)(F)F)C(F)(F)F)cc(C)c1NC(=O)c1ccc2nc(C#N)ccc2c1 [2-83] | 100 | 100 | 100 | 
27 | N#Cc1ccc2cc(C(=O)Nc3c(Cl)cc(C(F)(C(F)(F)F)C(F)(F)F)cc3Cl)ccc2n1 [2-61] |  | 100 | 100 | 
28 | N#Cc1ccc2cc(C(=O)Nc3c(I)cc(C(F)(C(F)(F)F)C(F)(F)C(F)(F)F)cc3SC(F)(F)F)ccc2n1 (centres unmarked) [2-188] |  | 100 | 100 | 
29 | O=C(Nc1c(I)cc(C(F)(C(F)(F)F)C(F)(F)Br)cc1I)c1ccc2c(ccc[n+]2[O-])c1 (centres unmarked) [2-199] | 100 | 100 |  | 
30 | O=C(Nc1c(Br)cc(C(F)(C(F)(F)F)C(F)(F)Br)cc1Br)c1ccc2ncccc2c1 (centres unmarked) [2-195] |  | 100 | 100 | 
31 | CCc1cc(C(F)(C(F)(F)F)C(F)(F)Br)cc(C)c1NC(=O)c1ccc2ncccc2c1 (centres unmarked) [2-192] | 100 | 100 |  | 
32 | N#Cc1ccc2cc(C(=O)Nc3c(Br)cc(C(F)(C(F)(F)F)C(F)(F)F)cc3C(F)(F)F)ccc2n1 [2-249] | 100 | 100 | 100 | 
33 | CCc1cc(C(F)(C(F)(F)F)C(F)(F)F)cc(CC)c1NC(=O)c1ccc2nc(C#N)ccc2c1 [2-46] | 100 | 100 | 100 | 
34 | Cc1cc(C(F)(C(F)(F)F)C(F)(F)F)cc(C)c1NC(=O)c1ccc2nccc(Br)c2c1 [2-13] |  | 100 | 100 | 
35 | Cc1cc(C(F)(C(F)(F)F)C(F)(F)C(F)(F)F)cc(C)c1NC(=O)c1ccc2ncccc2c1 (centres unmarked) [2-85] | 100 |  |  | 
36 | CC(C)c1cc(C(F)(C(F)(F)F)C(F)(F)C(F)(F)F)cc(I)c1NC(=O)c1ccc2nc(C#N)ccc2c1 (centres unmarked) [2-167] |  | 100 | 100 | 
37 | Cc1cc(C(F)(C(F)(F)F)C(F)(F)Br)cc(C)c1NC(=O)c1ccc2ncccc2c1 (centres unmarked) [2-189] | 100 |  |  | 
38 | CCCc1cc(C(F)(C(F)(F)F)C(F)(F)C(F)(F)F)cc(Br)c1NC(=O)c1ccc2nc(C#N)ccc2c1 (centres unmarked) [2-164] |  | 100 | 100 | 
39 | CCc1cc(C(Oc2ccc(Cl)cc2)(C(F)(F)F)C(F)(F)F)cc(C)c1NC(=O)c1ccc2ncccc2c1 [2-78] |  | 100 | 100 | 
